# Assay results reported in ChEMBL document CHEMBL6177931, “Exploring diverse frontiers: Advancements of bioactive 4-aminoquinoline-based molecular hybrids in targeted therapeutics and beyond” (Eur J Med Chem, 2024).
# Experiments:
# Plasmodium falciparum [1] = assay: Antiplasmodial activity against chloroquine resistant Plasmodium falciparum K1 infected in human erythrocytes incubated for 48 hrs by lactate dehydrogenase assay; format: functional, organism-based; conditions: K1, Erythrocyte
# Plasmodium falciparum [2] = assay: Potency index, ratio of chloroquine IC50 to test compound IC50 for antimalarial activity against Plasmodium falciparum Dd2; format: functional
# HepG2 = assay: Cytotoxicity against human HepG2 cells assessed as cell viability incubated for 24 hrs by MTT assay relative to control; format: functional
# [3] = test system: Mycobacterium tuberculosis; assay: Antitubercular activity against Mycobacterium tuberculosis H37Rv assessed as inhibition of visible bacterial growth incubated for 7 days by broth microdilution method; format: functional; conditions: 168 h, time 7 day
# [4] = Inhibition of ConA-induced TNF-alpha secretion in female BALB/c mouse splenocyte incubated for 48 hrs by ELISA; format: functional, cell-based
# SARS-CoV = assay: Antiviral activity against SARS-CoV 2019-nCoV infected in african green monkey Vero E6 cells; format: functional; conditions: Severe acute respiratory syndrome-related coronavirus, Vero C1008
# [5] = Inhibition of ConA-induced IL-1beta secretion in female BALB/c mouse splenocyte incubated for 48 hrs by ELISA; format: functional, cell-based
# [6] = Inhibition of ConA-induced IL-6 secretion in female BALB/c mouse splenocyte incubated for 48 hrs by ELISA; format: functional, cell-based
# Beta-secretase 1 = Beta-secretase 1 (Homo sapiens, UniProt P56817); assay: Inhibition of BACE1 (unknown origin) by FRET assay
# Acetylcholinesterase [7] = biological target: Acetylcholinesterase (Electrophorus electricus, UniProt O42275); assay: Inhibition of electric eel AChE using […] as substrate measured within 2 mins
# Cholinesterase = Cholinesterase (Equus caballus, UniProt P81908); assay: Inhibition of equine serum BChE using […] as substrate measured within 2 mins
# Pseudomonas aeruginosa = assay: Antibacterial activity against Pseudomonas aeruginosa NCIM-2036 incubated for 16 to 24 hrs by broth microdilution method; format: functional; conditions: time 16-24 hrs
# Escherichia coli [8] = assay: Antibacterial activity against Escherichia coli NCIM-2065 incubated for 16 to 24 hrs by broth microdilution method; format: functional; conditions: time 16-24 hrs
# Bacillus subtilis = assay: Antibacterial activity against Bacillus subtilis NCIM-2063 incubated for 16 to 24 hrs by broth microdilution method; format: functional; conditions: time 16-24 hrs
# Bacillus cereus = assay: Antibacterial activity against Bacillus cereus NCIM-2156 incubated for 16 to 24 hrs by broth microdilution method; format: functional; conditions: time 16-24 hrs
# Proteus vulgaris = assay: Antibacterial activity against Proteus vulgaris […] NCIM-2027 incubated for 16 to 24 hrs by broth microdilution method; format: functional; conditions: time 16-24 hrs
# Staphylococcus aureus [9] = assay: Antibacterial activity against Staphylococcus aureus NCIM-2079 incubated for 16 to 24 hrs by broth microdilution method; format: functional; conditions: time 16-24 hrs
# [10] = Growth inhibition of human 184B5 cells incubated for 48 hrs by SRB assay; format: toxicity, cell-based
# MDA-MB-468 = assay: Growth inhibition of human MDA-MB-468 cells incubated for 48 hrs by SRB assay; format: functional
# MCF7 [11] = assay: Growth inhibition of human MCF7 cells incubated for 48 hrs by SRB assay; format: functional
# [12] = Growth inhibition of human MCF-10A cells incubated for 48 hrs by SRB assay; format: toxicity, cell-based
# MDA-MB-231 [13] = assay: Growth inhibition of human MDA-MB-231 cells incubated for 48 hrs by SRB assay; format: functional
# MCF7 [14] = assay: Cytotoxicity against human MCF7 cells; format: functional, cell-based
# DU-145 = assay: Cytotoxicity against human DU-145 cells; format: functional, cell-based
# Zika virus = assay: Antiviral activity against Zika virus infected in African green monkey Vero cells assessed as reduction in virus-induced cytopathic effect incubated for 3 to 10 days by MTS assay; format: functional, organism-based
# Z-138 = assay: Anticancer activity against human Z138 cells assessed as cell growth inhibition incubated for 72 hrs by CellTiter96 aqueous Non-Radioactive Cell Proliferation Assay; format: functional
# K562 = assay: Anticancer activity against human K562 cells assessed as cell growth inhibition incubated for 72 hrs by CellTiter96 aqueous Non-Radioactive Cell Proliferation Assay; format: functional
# HL-60 = assay: Anticancer activity against human HL-60 cells assessed as cell growth inhibition incubated for 72 hrs by CellTiter96 aqueous Non-Radioactive Cell Proliferation Assay; format: functional
# [15] = Cytotoxicity against African green monkey Vero cells assessed as reduction in cell viability incubated for 3 to 10 days by MTS assay; format: toxicity, cell-based; conditions: chlorocebus sabaeus, time 3-10 day
# [16] = Cytotoxicity against human HEp-2 cells assessed as reduction in cell viability incubated for 3 to 10 days by MTS assay; format: toxicity, cell-based; conditions: time 3-10 day
# CAPAN-1 = assay: Anticancer activity against human CAPAN-1 cells assessed as cell growth inhibition by MTS assay; format: functional
# Coxsackievirus = assay: Antiviral activity against Coxsackievirus B4 infected in human HEp-2 cells assessed as reduction in virus-induced cytopathic effect incubated for 3 to 10 days by MTS assay; format: functional, organism-based; conditions: B4, HEp-2
# MCF7 [17] = assay: Antiproliferative activity against human MCF7 cells assessed as cell growth inhibition incubated for 72 hrs by MTT assay; format: functional
# [18] = Anticancer activity against human DND41 cells assessed as cell growth inhibition incubated for 72 hrs by CellTiter96 aqueous Non-Radioactive Cell Proliferation Assay; format: functional
# HCT-116 = assay: Anticancer activity against human HCT-116 cells assessed as cell growth inhibition incubated for 72 hrs by MTT assay; format: functional
# LN-229 = assay: Anticancer activity against human LN-229 cells assessed as cell growth inhibition by MTS assay; format: functional
# NCI-H460 = assay: Anticancer activity against human NCI-H460 cells assessed as cell growth inhibition incubated for 72 hrs by MTT assay; format: functional
# Curvularia lunata = assay: Antifungal activity against Curvularia lunata incubated for 72 hrs by mycelium growth rate method; format: functional, organism-based
# Pyricularia grisea = assay: Antifungal activity against Pyricularia grisea incubated for 72 hrs by mycelium growth rate method; format: functional, organism-based
# Alternaria alternata = assay: Antifungal activity against Alternaria alternata incubated for 72 hrs by mycelium growth rate method; format: functional, organism-based
# Mus musculus [19] = assay: Anti-inflammatory activity against carrageenan-induced paw edema mouse model assessed as reduction in edema measured after 2 hrs relative to control; format: functional; parameters: scale not given: the % may be the effect or the level left
# Mus musculus [20] = assay: Anti-inflammatory activity against carrageenan-induced paw edema mouse model assessed as reduction in edema measured after 1 hrs relative to control; format: functional; parameters: scale not given: the % may be the effect or the level left
# Mus musculus [21] = assay: Anti-inflammatory activity against carrageenan-induced paw edema mouse model assessed as reduction in edema measured after 3 hrs relative to control; format: functional; parameters: scale not given: the % may be the effect or the level left
# Leishmania amazonensis [22] = assay: Antileishmanial activity against Leishmania amazonensis amastigotes infected in mouse macrophages assessed as inhibition of parasite growth incubated for 72 hrs by giemsa staining based analysis; format: functional, organism-based; conditions: Macrophage
# Leishmania amazonensis [23] = assay: Antileishmanial activity against Leishmania amazonensis promastigotes infected in mouse macrophages assessed as inhibition of parasite growth incubated for 72 hrs by giemsa staining based analysis; format: functional, organism-based; conditions: Macrophage
# [24] = Selectivity index, ratio of CC50 for cytotoxicity against mouse macrophage to IC50 for antileishmanial activity against Leishmania amazonensis amastigotes infected in mouse macrophages assessed as inhibition of parasite growth; format: toxicity, cell-based; conditions: read-out: Ratio CC50/IC50
# Staphylococcus aureus [25] = assay: Antibacterial activity against Staphylococcus aureus ATCC 8739 incubated for 24 hrs by broth microdilution method; format: functional
# SGC-7901 = assay: Antiproliferative activity against human SGC-7901 cells incubated for 24 hrs by MTT assay; format: functional, cell-based; conditions: SGC-7901, 24 h
# HeLa = assay: Antiproliferative activity against human HeLa cells incubated for 24 hrs by MTT assay; format: functional, cell-based
# A549 = assay: Antiproliferative activity against human A549 cells assessed as reduction in cell viability incubated for 24 hrs by MTT assay; format: functional, cell-based; conditions: A549, 24 h
# Escherichia coli [26] = assay: Antibacterial activity against Escherichia coli ATCC 29213 incubated for 24 hrs by broth microdilution method; format: functional
# [27] = Cytotoxicity against human L02 cells incubated for 24 hrs by MTT assay; format: toxicity, cell-based
# Acetylcholinesterase [28] = biological target: Acetylcholinesterase (Homo sapiens, UniProt P22303); assay: Inhibition of AChE (unknown origin)
# Plasmodium falciparum [29] = assay: Antimalarial activity against chloroquine sensitive sorbitol synchronized Plasmodium falciparum 3D7 assessed as inhibition of parasite growth incubated for 72 hrs by HRP2 ELISA based assay; format: functional, organism-based; conditions: 3D7, 72 h
# Plasmodium falciparum [30] = assay: Antimalarial activity against chloroquine resistant sorbitol synchronized Plasmodium falciparum W2 assessed as inhibition of parasite growth incubated for 72 hrs by HRP2 ELISA based assay; format: functional, organism-based; conditions: W2, 72 h
# Plasmodium falciparum [31] = assay: Antiplasmodial activity against chloroquine sensitive Plasmodium falciparum 3D7 incubated for 72 hrs by SYBR green I based fluorescence assay; format: functional, organism-based; conditions: 3D7, 72 h
# MDA-MB-231 [32] = assay: Anticancer activity against human MDA-MB-231 cells; format: functional, cell-based
# Aspergillus fumigatus = assay: Antifungal activity against Aspergillus fumigatus incubated for 48 to 72 hrs by broth microdilution method; format: functional; conditions: time 48-72 hrs
# Aspergillus niger = assay: Antifungal activity against Aspergillus niger incubated for 48 to 72 hrs by broth microdilution method; format: functional; conditions: time 48-72 hrs
# Candida albicans = assay: Antifungal activity against Candida albicans incubated for 48 to 72 hrs by broth microdilution method; format: functional; conditions: time 48-72 hrs
# Cholinesterase, sequence (P81908 whole entry): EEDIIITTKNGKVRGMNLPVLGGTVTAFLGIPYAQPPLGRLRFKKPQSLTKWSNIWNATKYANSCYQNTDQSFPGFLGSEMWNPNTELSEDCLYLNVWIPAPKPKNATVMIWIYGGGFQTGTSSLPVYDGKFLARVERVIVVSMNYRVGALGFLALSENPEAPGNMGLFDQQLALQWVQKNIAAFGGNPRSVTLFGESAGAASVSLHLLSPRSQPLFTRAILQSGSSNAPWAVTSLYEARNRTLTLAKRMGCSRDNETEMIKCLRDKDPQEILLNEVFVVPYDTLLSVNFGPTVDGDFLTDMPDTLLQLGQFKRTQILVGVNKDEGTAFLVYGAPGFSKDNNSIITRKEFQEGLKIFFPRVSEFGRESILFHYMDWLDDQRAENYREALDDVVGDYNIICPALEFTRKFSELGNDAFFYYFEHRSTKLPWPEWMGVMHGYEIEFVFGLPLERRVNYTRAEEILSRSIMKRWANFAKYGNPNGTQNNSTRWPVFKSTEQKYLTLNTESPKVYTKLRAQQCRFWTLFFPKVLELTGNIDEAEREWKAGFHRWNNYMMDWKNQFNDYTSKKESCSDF
# Acetylcholinesterase (Homo sapiens, UniProt P22303), sequence (P22303 whole entry): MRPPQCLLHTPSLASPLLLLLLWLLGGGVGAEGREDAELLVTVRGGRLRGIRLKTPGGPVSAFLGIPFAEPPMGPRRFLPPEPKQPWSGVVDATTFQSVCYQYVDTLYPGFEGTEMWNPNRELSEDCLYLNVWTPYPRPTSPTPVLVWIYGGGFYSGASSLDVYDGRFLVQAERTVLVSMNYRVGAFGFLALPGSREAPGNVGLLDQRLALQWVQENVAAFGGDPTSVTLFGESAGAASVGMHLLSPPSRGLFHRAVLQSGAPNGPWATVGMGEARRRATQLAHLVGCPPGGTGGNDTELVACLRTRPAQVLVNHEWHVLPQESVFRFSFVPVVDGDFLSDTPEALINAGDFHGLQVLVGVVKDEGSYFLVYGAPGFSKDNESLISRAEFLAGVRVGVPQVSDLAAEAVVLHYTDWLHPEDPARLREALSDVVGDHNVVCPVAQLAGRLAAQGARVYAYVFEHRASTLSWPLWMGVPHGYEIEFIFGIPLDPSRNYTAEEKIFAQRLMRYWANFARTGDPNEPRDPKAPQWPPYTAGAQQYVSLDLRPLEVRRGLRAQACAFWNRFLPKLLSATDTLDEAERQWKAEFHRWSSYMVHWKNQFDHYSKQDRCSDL
# Beta-secretase 1, sequence (P56817 whole entry): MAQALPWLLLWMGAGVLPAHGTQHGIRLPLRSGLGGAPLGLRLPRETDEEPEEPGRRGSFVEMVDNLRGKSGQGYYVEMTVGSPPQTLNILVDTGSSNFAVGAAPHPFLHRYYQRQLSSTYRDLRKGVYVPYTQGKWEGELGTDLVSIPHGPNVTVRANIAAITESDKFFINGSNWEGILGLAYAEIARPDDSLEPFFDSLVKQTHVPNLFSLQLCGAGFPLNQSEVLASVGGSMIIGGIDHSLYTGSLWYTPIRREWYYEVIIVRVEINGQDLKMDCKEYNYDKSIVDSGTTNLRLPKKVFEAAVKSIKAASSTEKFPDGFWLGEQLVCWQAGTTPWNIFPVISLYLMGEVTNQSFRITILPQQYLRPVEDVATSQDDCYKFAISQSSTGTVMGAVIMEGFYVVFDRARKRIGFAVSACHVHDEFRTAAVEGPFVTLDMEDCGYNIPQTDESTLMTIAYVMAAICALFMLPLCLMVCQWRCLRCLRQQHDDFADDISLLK
# Acetylcholinesterase (Electrophorus electricus, UniProt O42275), sequence (O42275 whole entry): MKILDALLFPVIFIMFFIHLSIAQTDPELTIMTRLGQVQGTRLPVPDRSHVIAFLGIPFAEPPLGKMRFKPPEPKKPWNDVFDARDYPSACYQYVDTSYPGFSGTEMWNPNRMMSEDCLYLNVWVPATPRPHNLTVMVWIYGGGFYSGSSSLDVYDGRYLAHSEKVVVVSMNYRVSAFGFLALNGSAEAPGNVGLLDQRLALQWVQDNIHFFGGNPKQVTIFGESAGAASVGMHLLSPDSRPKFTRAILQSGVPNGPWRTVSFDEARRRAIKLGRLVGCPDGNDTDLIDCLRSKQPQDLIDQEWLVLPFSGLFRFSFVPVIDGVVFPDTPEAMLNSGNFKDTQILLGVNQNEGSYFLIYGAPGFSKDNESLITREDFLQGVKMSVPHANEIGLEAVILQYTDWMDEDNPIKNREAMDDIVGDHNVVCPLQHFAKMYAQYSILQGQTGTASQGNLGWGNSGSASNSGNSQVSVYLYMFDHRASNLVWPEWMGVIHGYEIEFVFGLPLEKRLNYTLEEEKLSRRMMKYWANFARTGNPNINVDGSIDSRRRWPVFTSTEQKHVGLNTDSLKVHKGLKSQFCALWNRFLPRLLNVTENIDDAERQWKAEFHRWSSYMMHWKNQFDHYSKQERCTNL
smiles,measurement,setting,value
CCOC(=O)c1nn(CCNc2ccnc3cc(Cl)ccc23)c2c1C(c1ccc(CC)cc1)C(C#N)=C(N)O2 (stereo not given),EC50,Plasmodium falciparum [1],0.02 µM
CC(C)Cc1ccc(C(C)C(=O)NCCNc2ccnc3cc(Cl)ccc23)cc1 (stereo not given),Ratio IC50,Plasmodium falciparum [2],4
CC(CNc1ccnc2cc(Cl)ccc12)NC(=O)Nc1nc2ccc(C(F)(F)F)cc2s1 (stereo not given),Activity,HepG2,100%
same,MIC,[3],0.968 µM
CCN(CC)CCCC(C)Nc1ccnc2cc(Cl)ccc12 (stereo not given) [CHLOROQUINE],IC50,[4],35 µM
same,EC90,SARS-CoV,6.9 µM
same,IC50,[5],2.72 µM
same,IC50,[6],14.6 µM
Nc1c2c(nc3c1C(c1cccc([N+](=O)[O-])c1)C1=C(O3)C(=O)c3ccccc3C1=O)CCCC2 (stereo not given),IC50,Beta-secretase 1,19.6 µM
same,IC50,Acetylcholinesterase [7],0.86 µM
same,IC50,Cholinesterase,6.03 µM
O=[N+]([O-])c1ccc(Nc2nc(NC(=S)NNc3ccnc4cc(Cl)ccc34)nc(Nc3ccc([N+](=O)[O-])cc3)n2)cc1,MIC,Pseudomonas aeruginosa,3.12 µM
same,MIC,Escherichia coli [8],12.5 µM
same,MIC,Bacillus subtilis,25 µM
same,MIC,Bacillus cereus,12.5 µM
same,MIC,Proteus vulgaris,3.12 µM
same,MIC,Staphylococcus aureus [9],3.12 µM
O=[N+]([O-])c1ccc(S(=O)(=O)N2CCN(c3ccnc4cc(Cl)ccc34)CC2)c([N+](=O)[O-])c1,GI50 at 48 h,[10],9 µM
same,GI50,MDA-MB-468,0.7 µM
same,GI50,MCF7 [11],2.3 µM
same,GI50 at 48 h,[12],12.3 µM
same,GI50,MDA-MB-231 [13],3.4 µM
CC1(C)CC[C@]2(C(=O)O)CC[C@]3(C)C(=CC[C@@H]4[C@@]5(C)CC[C@H](O)C(C)(C)[C@@H]5CC[C@]43C)[C@@H]2C1 [OLEANOLIC_ACID],IC50,MCF7 [14],> 200 µM
same,IC50,DU-145,> 200 µM
C/C(=C\C(=O)NCCCCNc1cc(C(F)(F)F)nc2c(C(F)(F)F)cccc12)C(=O)NCCCCNc1cc(C(F)(F)F)nc2c(C(F)(F)F)cccc12,EC50,Zika virus,0.85 µM
same,GI50,Z-138,6.9 µM
same,GI50,K562,8.6 µM
same,GI50,HL-60,2.6 µM
same,CC50,[15],10 µM
same,CC50,[16],6.7 µM
same,GI50,CAPAN-1,2.3 µM
same,EC50,Coxsackievirus,0.85 µM
same,GI50,MCF7 [17],0.7 µM
same,GI50,[18],7.9 µM
same,GI50,HCT-116,2.4 µM
same,GI50,LN-229,2.4 µM
same,GI50,NCI-H460,3 µM
Cl.Clc1ccc(Nc2cc(-c3ccccc3)nc3ccccc23)cc1,EC50,Curvularia lunata,13.3 µg/mL
same,EC50,Pyricularia grisea,14.4 µg/mL
same,EC50,Alternaria alternata,15.6 µg/mL
O=C(CN1CCN(c2ccccc2)CC1)N1CCN(c2ccnc3cc(Cl)ccc23)CC1,Activity,Mus musculus [19],50%
same,Activity,Mus musculus [20],34%
same,Activity,Mus musculus [21],64%
CCCCCCCCCCn1cc(CNCCNc2ccnc3cc(Cl)ccc23)nn1,IC50,Leishmania amazonensis [22],1.1 µM
same,IC50,Leishmania amazonensis [23],5.7 µM
same,selectivity ratio,[24],16
CCC[n+]1cc(C(=O)OCC)c(Nc2ccc(OCc3ccccc3)cc2)c2cc3c(cc21)OCO3,MIC,Staphylococcus aureus [25],3.12 µM
same,IC50,SGC-7901,17.6 µM
same,IC50,HeLa,7.62 µM
same,IC50,A549,5.18 µM
same,MIC,Escherichia coli [26],3.12 µM
same,IC50 at 24 h,[27],54.5 µM
O=P(NCCCCCCCCCCCCNc1c2c(nc3ccccc13)CCCC2)(Oc1ccccc1)Oc1ccccc1,IC50,Acetylcholinesterase [28],24300 µM
COc1cc(NC(C)CCCN)c2ncccc2c1 (stereo not given) [PRIMAQUINE],IC50,Plasmodium falciparum [29],1.12 µM
same,IC50,Plasmodium falciparum [30],0.182 µM
O=C(Cn1cc(COc2ccc(Br)cc2)nn1)NCCNc1ccnc2cc(Cl)ccc12,IC50,Plasmodium falciparum [31],0.04 µM
C[C@H]1[C@H](C)CC[C@]2(C(=O)OCCOCCNc3ccnc4cc(Cl)ccc34)CC[C@]3(C)C(=CC[C@@H]4[C@@]5(C)CC[C@H](O)C(C)(C)[C@@H]5CC[C@]43C)[C@H]12,IC50,MDA-MB-231 [32],85.6 µg/mL
NCCCNc1nc(NCCCN)nc(NC(=S)NNc2ccnc3cc(Cl)ccc23)n1,MIC,Aspergillus fumigatus,8 µg/mL
same,MIC,Aspergillus niger,8 µg/mL
same,MIC,Candida albicans,8 µg/mL
